pIC50: −log10 of the molar value.
Experiments:
human 15-PGDH = target: T1, human 15-PGDH (Homo sapiens, UniProt P15428); assay: Evaluation of 15-PGDH inhibitory activity (fluorescence enzyme assay, NAD+/PGE2); type: biochemical; details: human 15-PGDH enzyme, fluorescence Vmax
T1 construct: purchased R&D System 5660-DH
T1 sequence (P15428 1-266): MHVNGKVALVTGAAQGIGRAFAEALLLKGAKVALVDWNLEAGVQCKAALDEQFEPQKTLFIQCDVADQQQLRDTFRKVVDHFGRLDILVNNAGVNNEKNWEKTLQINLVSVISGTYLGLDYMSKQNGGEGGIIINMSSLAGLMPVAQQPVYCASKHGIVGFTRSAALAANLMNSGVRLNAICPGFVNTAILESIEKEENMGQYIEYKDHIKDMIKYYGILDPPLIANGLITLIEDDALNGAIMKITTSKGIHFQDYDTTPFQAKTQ
Procedure: 15-PGDH inhibition activity of Example compounds was measured as follows. 6.7 ng of human 15-PGDH (R&D System# 5660-DH) enzyme (10 µL) was added to a black 96 well plate, 60 µL of buffer (50 mM Tris-HCl, pH 7.5, 0.01% Tween 20) was added, and 10 µL of 200 µM β-Nicotinamide adenine dinucleotide sodium salt (Sigma, Cat# N0632-5G) was added. 10 µL of (10x) compound solution in DMSO was added and reacted for 10 minutes at room temperature.

A549 cells = assay: Measurement of PGE2-increasing activity in A549 cells (IL-1β stimulated, PGE2 quantified in supernatant); type: cell-based; details: Homo sapiens, 24 h; concentration of 1 µM of each compound; IL-1β treated A549 cells; read-out: Increased PGE2 production in A549 cells
How it was run: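 PGE2 secreted into the supernatant was measured by immunoassay 24 h after treatment. Before treatment, A549 cells were cultured 24 h in 10% FBS F12K, washed, and placed in serum-free medium containing compound (DMSO 0.1% final) plus or minus IL-1β, incubated at 37 °C, 5% CO2.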

Compound	pIC50 (human 15-PGDH)	fold induction at 1 µM (A549 cells)
O=C(Nc1ccc(-c2cccc3c(C(=O)N4CCCCC4)cnn23)cc1)c1cccnc1 [Example 101, N-(4-(3-(piperidine-1-carbonyl)pyrazolo[1,5-a]pyridin-7-yl)phenyl)nicotinamide]	≥ 7.00	> 1.5
O=C1CN(C(=O)c2cncc(-c3cccc4c(C(=O)N5CCCCC5)cnn34)c2)CCN1 [Example 203, 4-[5-[3-(piperidine-1-carbonyl)pyrazolo[1,5-a]pyridin-7-yl]pyridine-3-carbonyl]piperazin-2-one]	≥ 7.00	> 1.5
CN1CCC(NC(=O)c2cccc(-c3cccc4c(C(=O)N5CCCCC5)cnn34)c2)CC1 [Example 33, N-(1-methylpiperidin-4-yl)-3-(3-(piperidine-1-carbonyl)pyrazolo[1,5-a]pyridin-7-yl)benzamide]	≥ 7.00	> 1.5
O=C(Nc1ccncc1)c1cccc(-c2cccc3c(C(=O)N4CCCCC4)cnn23)c1 [Example 38, 3-(3-(piperidine-1-carbonyl)pyrazolo[1,5-a]pyridin-7-yl)-N-(pyridin-4-yl)benzamide]	≥ 7.00	> 1.5
CC(C)(C)OC(=O)N1CC=C(c2cccc3c(C(=O)N4CCCCC4)cnn23)CC1 [Example 120, tert-butyl 4-(3-(piperidine-1-carbonyl)pyrazolo[1,5-a]pyridin-7-yl)-3,6-dihydropyridine-1(2H)-carboxylate]	≥ 7.00	> 1.5
O=C(c1cnn2c(-c3ccc(-c4noc(=O)[nH]4)nc3)cccc12)N1CCCCC1 [Example 117, 3-(5-(3-(piperidine-1-carbonyl)pyrazolo[1,5-a]pyridin-7-yl)pyridin-2-yl)-1,2,4-oxadiazol-5(4H)-one]	≥ 7.00	> 1.5
O=C1CC(C(=O)Nc2cncc(-c3cccc4c(C(=O)N5CCCCC5)cnn34)c2)CCN1 (stereo not drawn) [Example 198, 2-oxo-N-(5-(3-(piperidine-1-carbonyl)pyrazolo[1,5-a]pyridin-7-yl)pyridin-3-yl)piperidine-4-carboxamide]	≥ 7.00	> 1.5
O=C(c1cnn2c(-c3cccc(-c4noc(=O)[nH]4)c3)cccc12)N1CCCCC1 [Example 115, 3-(3-(3-(piperidine-1-carbonyl)pyrazolo[1,5-a]pyridin-7-yl)phenyl)-1,2,4-oxadiazol-5(4H)-one]	≥ 7.00	> 1.5
CNC(=O)c1cccc(-c2cccc3c(C(=O)N4CCCCC4)cnn23)c1 [Example 27, N-methyl-3-(3-(piperidine-1-carbonyl)pyrazolo[1,5-a]pyridin-7-yl)benzamide]	≥ 7.00	< 1.5
O=C(c1cnn2c(-c3cnc4ccccc4c3)cccc12)N1CCCCC1 [Example 130, piperidin-1-yl(7-(quinolin-3-yl)pyrazolo[1,5-a]pyridin-3-yl)methanone]	≥ 7.00	> 1.5
COc1cccc(Sc2cccc3c(C(=O)N4CCCCC4)cnn23)c1 [Example 194, (7-((3-methoxyphenyl)thio)pyrazolo[1,5-a]pyridin-3-yl)(piperidin-1-yl)methanone]	≥ 7.00	< 1.5
Cn1cnc(-c2cccc3c(C(=O)N4CCCCC4)cnn23)cc1=O [Example 207, 3-methyl-6-(3-(piperidine-1-carbonyl)pyrazolo[1,5-a]pyridin-7-yl)pyrimidin-4(3H)-one]	≥ 7.00	< 1.5
CC(C)NC(=O)c1ccc(-c2cccc3c(C(=O)N4CCCCC4)cnn23)cc1 [Example 60, N-isopropyl-4-(3-(piperidine-1-carbonyl)pyrazolo[1,5-a]pyridin-7-yl)benzamide]	≥ 7.00	> 1.5
O=C(c1cnn2c(-c3ccc(N4CCOCC4)nc3)cccc12)N1CCCCC1 [Example 108, (7-(6-morpholinopyridin-3-yl)pyrazolo[1,5-a]pyridin-3-yl)(piperidin-1-yl)methanone]	≥ 7.00	> 1.5

Second part, led by results:

pIC50 (human 15-PGDH)	Compound	fold induction at 1 µM (A549 cells)
≥ 7.00	O=C(c1cnn2c(-c3cnc(F)c(Cl)c3)cccc12)N1CCCCC1 [Example 289, (7-(5-chloro-6-fluoropyridin-3-yl)pyrazolo[1,5-a]pyridin-3-yl)(piperidin-1-yl)methanone]	> 1.5
≥ 7.00	O=C(c1ccc(-c2cccc3c(C(=O)N4CCCCC4)cnn23)cn1)N1CC2(CCC2)C1 [Example 214, 2-azaspiro[3.3]heptan-2-yl-[5-[3-(piperidine-1-carbonyl)pyrazolo[1,5-a]pyridin-7-yl]-2-pyridyl]methanone]	> 1.5
≥ 7.00	O=C(Nc1cncc(-c2cccc3c(C(=O)N4CCCCC4)cnn23)c1)c1cccnc1 [Example 326, N-(5-(3-(piperidine-1-carbonyl)pyrazolo[1,5-a]pyridin-7-yl)pyridin-3-yl)nicotinamide]	> 1.5
≥ 7.00	O=C(c1cnn2c(-c3cncc(-c4noc(=O)[nH]4)c3)cccc12)N1CCCCC1 [Example 297, 3-(5-(3-(piperidine-1-carbonyl)pyrazolo[1,5-a]pyridin-7-yl)pyridin-3-yl)-1,2,4-oxadiazol-5(4H)-one]	< 1.5
≥ 7.00	O=C(c1cnn2c(-c3ccc(N4CCOC4=O)nc3)cccc12)N1CCCC(F)C1 (stereo not drawn) [Example 383, 3-(5-(3-(3-fluoropiperidine-1-carbonyl)pyrazolo[1,5-a]pyridin-7-yl)pyridin-2-yl)oxazolidin-2-one]	> 1.5
≥ 7.00	Cc1nc(-c2cc(-c3cccc4c(C(=O)N5CCCCC5)cnn34)ccc2F)no1 [Example 276, [7-[4-fluoro-3-(5-methyl-1,2,4-oxadiazol-3-yl)phenyl]pyrazolo[1,5-a]pyridin-3-yl]-(1-piperidyl)methanone]	> 1.5
≥ 7.00	Cn1cnc2ncc(-c3cccc4c(C(=O)N5CCCCC5)cnn34)cc2c1=O [Example 255, 3-methyl-6-(3-(piperidine-1-carbonyl)pyrazolo[1,5-a]pyridin-7-yl)pyrido[2,3-d]pyrimidin-4(3H)-one]	> 1.5
≥ 7.00	O=C(c1cnn2c(-c3cc(-c4noc(=O)[nH]4)cc([N+](=O)[O-])c3)cccc12)N1CCCCC1 [Example 329, 3-(3-nitro-5-(3-(piperidine-1-carbonyl)pyrazolo[1,5-a]pyridin-7-yl)phenyl)-1,2,4-oxadiazol-5(4H)-one]	> 1.5
≥ 7.00	Nc1nc(-c2ccc(-c3cccc4c(C(=O)N5CCCCC5)cnn34)cc2)no1 [Example 359, [7-[4-(5-amino-1,2,4-oxadiazol-3-yl)phenyl]pyrazolo[1,5-a]pyridin-3-yl]-(1-piperidyl)methanone]	> 1.5
≥ 7.00	Cc1nc(-c2ccc(-c3cccc4c(C(=O)N5CCCCC5)cnn34)c(F)c2)no1 [Example 296, [7-[2-fluoro-4-(5-methyl-1,2,4-oxadiazol-3-yl)phenyl]pyrazolo[1,5-a]pyridin-3-yl]-(1-piperidyl)methanone]	> 1.5
≥ 7.00	CNC(=O)c1ncc(-c2cccc3c(C(=O)N4CCCCC4)cnn23)cc1F [Example 250, 3-fluoro-N-methyl-5-[3-(piperidine-1-carbonyl)pyrazolo[1,5-a]pyridin-7-yl]pyridine-2-carboxamide]	> 1.5
≥ 7.00	O=C(Nc1cccc2c(C(=O)N3CCCCC3)cnn12)c1cncc(F)c1 [Example 241, 5-fluoro-N-[3-(piperidine-1-carbonyl)pyrazolo[1,5-a]pyridin-7-yl]pyridine-3-carboxamide]	> 1.5
≥ 7.00	O=C(c1cnn2c(-c3cc(F)cc(-c4noc(=O)[nH]4)c3)cccc12)N1CCCCC1 [Example 299, 3-(3-fluoro-5-(3-(piperidine-1-carbonyl)pyrazolo[1,5-a]pyridin-7-yl)phenyl)-1,2,4-oxadiazol-5(4H)-one]	> 1.5
≥ 7.00	O=C1NCc2ncc(-c3cccc4c(C(=O)N5CCCCC5)cnn34)cc21 [Example 232, 3-(3-(piperidine-1-carbonyl)pyrazolo[1,5-a]pyridin-7-yl)-6,7-dihydro-5H-pyrrolo[3,4-b]pyridin-5-one]	> 1.5
≥ 7.00	O=C1NCc2ccc(-c3cccc4c(C(=O)N5CC6(C5)CC(F)(F)C6)cnn34)cc21 [Example 412, 6-(3-(6,6-difluoro-2-azaspiro[3.3]heptane-2-carbonyl)pyrazolo[1,5-a]pyridin-7-yl)isoindolin-1-one]	> 1.5
≥ 7.00	O=C(c1cnn2c(-c3ccc(N4CC(CO)C4)nc3)cccc12)N1CCCCC1 [Example 221, (7-(6-(3-(hydroxymethyl)azetidin-1-yl)pyridin-3-yl)pyrazolo[1,5-a]pyridin-3-yl)(piperidin-1-yl)methanone]	> 1.5

From patent EP4653437A2 (Innovo Therapeutics Inc., priority 2023, dated 2024)
